Source: US20250382570A1, “GENERATION AND APPLICATION OF FUNCTIONAL HUMAN ASTROCYTES FROM PLURIPOTENT STEM CELLS” (The Regents of the University of California, priority 2022, published 2025)

Tested on: iAstrocytes
Experiment: Time-lapse imaging of phagocytosis of pHrodoRed-conjugated myelin by iAstrocytes
Assay type: cell-based, human
Conditions: imaging over 24 h
Protocol: FIGS. 3A-3B: (FIG. 3A) iAstrocytes are compatible for study with microglia co-cultures. Cultured iAstrocytes are subsequently incubated with iPSC-derived microglia (Abud et al., 2017). (FIG. 3B) iAstrocytes are labeled with GFAP and iPSC-derived microglia are labeled with Iba1 (light grey). The differentiation protocols for both microglia and astrocytes are serum-free and thus, make them compatible to study together without the confounds of serum activation of glia. Astrocytes phagocytose pHrodoRed-labeled myelin.
(FIGS. 4A-4C, FIG. 4A: 0 hour; FIG. 4B, 12 hours; and FIG. 4C, 24 hours). Phagocytosis can be visualized by pHrodoRed internalization which is absent at time zero (FIG. 4A). Phagocytosis of pHrodoRed-conjugated myelin is detected in iAstrocytes at 12 h (FIG. 4B), which gradually increases with time (24 h, FIG. 4C). FIG. 4D graphically depicts total red object area (y-axis) versus time in hours (x-axis).

TGFβ: Growth factor stated as necessary for quiescent astrocytes; inhibits myelin phagocytosis by iAstrocytes
effect on phagocytosis of myelin by iAstrocytes: inhibited
